The record followed here is PMC10004634 (PLOS ONE, 2023).

Where two headings read alike, the source gives them in different places.

What all share (assay): biochemical
Common to all, as to design: KINOMEscan scanMAX competition binding, DNA-tagged kinases, qPCR read-out, percent control at 300 nM
(Quantitative PCR measures a nucleic acid by following its amplification.)

One experiment has as its target T1, RIPK4 (Homo sapiens, UniProt P57078).
T1 sequence (P57078 1-832): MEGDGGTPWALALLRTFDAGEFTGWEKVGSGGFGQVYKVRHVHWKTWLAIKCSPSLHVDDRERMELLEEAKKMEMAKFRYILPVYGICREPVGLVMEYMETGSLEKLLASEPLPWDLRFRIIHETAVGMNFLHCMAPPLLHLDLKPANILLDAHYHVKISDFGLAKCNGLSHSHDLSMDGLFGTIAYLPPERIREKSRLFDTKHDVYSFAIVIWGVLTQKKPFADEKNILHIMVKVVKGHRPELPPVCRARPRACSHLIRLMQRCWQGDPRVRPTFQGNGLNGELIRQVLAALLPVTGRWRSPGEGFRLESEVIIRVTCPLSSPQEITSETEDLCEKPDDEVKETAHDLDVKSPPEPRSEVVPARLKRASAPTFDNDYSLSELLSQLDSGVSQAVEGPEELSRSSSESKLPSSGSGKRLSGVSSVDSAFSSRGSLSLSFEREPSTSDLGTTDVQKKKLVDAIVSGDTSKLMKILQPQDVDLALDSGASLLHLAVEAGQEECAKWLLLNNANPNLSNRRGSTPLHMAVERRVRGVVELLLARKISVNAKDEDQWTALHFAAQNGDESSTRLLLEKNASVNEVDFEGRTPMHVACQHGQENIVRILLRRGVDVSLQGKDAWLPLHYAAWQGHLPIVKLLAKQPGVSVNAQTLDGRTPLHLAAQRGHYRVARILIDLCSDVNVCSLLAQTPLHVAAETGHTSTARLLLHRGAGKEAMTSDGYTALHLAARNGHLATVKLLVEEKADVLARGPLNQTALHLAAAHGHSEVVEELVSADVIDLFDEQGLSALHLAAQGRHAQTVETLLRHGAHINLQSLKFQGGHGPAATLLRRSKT

The next experiment addresses PDGFRB (Homo sapiens, UniProt P09619).
A further experiment addresses T2, BRSK2 (Homo sapiens, UniProt Q8IWQ3).
T2 sequence (Q8IWQ3 1-736): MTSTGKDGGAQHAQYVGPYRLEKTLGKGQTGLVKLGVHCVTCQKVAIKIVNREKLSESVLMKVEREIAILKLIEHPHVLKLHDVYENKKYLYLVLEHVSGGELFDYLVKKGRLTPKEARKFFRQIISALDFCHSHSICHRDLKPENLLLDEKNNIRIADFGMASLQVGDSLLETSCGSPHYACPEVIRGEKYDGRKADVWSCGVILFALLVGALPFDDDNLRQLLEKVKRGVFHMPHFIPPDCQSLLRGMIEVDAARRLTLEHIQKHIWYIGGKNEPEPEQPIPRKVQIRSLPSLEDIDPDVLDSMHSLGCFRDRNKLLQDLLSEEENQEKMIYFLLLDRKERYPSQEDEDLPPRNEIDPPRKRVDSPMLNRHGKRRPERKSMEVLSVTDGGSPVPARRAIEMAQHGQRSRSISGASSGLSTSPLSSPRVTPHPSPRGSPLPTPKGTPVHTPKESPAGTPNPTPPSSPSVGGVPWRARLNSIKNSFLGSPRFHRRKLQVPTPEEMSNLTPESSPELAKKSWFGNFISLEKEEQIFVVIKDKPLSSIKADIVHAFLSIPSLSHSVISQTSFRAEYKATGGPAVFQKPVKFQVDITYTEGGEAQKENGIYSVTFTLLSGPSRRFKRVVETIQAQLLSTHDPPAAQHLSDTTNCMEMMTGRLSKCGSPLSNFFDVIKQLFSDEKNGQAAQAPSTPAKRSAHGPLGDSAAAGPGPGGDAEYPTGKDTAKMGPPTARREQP

A further experiment addresses DYRK1B (Homo sapiens, UniProt Q9Y463).
Another experiment has as its target T3, RIPK1 (Homo sapiens, UniProt Q13546).
T3 sequence (Q13546 1-671): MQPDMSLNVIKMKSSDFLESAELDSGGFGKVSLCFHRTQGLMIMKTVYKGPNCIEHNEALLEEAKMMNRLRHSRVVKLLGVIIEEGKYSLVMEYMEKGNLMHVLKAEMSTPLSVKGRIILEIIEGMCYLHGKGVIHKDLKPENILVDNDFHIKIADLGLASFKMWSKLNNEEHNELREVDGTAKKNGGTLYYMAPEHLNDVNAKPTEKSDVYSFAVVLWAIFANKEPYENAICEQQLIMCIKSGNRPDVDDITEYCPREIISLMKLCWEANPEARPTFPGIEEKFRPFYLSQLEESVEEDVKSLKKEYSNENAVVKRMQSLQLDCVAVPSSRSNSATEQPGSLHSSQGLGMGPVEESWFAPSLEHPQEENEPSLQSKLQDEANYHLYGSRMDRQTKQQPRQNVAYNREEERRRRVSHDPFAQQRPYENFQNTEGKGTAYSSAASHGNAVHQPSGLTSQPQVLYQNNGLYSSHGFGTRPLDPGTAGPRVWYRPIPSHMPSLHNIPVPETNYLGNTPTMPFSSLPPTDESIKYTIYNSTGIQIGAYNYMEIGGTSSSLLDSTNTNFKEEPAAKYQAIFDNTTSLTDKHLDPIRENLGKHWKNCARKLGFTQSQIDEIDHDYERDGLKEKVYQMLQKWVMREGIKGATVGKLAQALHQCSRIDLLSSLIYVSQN

[1] abbreviates: read-out: Percent control / Zanubrutinib.
[2] abbreviates: read-out: Percent control / Tirabrutinib.
[3] abbreviates: read-out: Percent control / Ibrutinib.
[4] abbreviates: read-out: Percent control / Acalabrutinib.

Sequence of DYRK1B (Q9Y463 whole entry): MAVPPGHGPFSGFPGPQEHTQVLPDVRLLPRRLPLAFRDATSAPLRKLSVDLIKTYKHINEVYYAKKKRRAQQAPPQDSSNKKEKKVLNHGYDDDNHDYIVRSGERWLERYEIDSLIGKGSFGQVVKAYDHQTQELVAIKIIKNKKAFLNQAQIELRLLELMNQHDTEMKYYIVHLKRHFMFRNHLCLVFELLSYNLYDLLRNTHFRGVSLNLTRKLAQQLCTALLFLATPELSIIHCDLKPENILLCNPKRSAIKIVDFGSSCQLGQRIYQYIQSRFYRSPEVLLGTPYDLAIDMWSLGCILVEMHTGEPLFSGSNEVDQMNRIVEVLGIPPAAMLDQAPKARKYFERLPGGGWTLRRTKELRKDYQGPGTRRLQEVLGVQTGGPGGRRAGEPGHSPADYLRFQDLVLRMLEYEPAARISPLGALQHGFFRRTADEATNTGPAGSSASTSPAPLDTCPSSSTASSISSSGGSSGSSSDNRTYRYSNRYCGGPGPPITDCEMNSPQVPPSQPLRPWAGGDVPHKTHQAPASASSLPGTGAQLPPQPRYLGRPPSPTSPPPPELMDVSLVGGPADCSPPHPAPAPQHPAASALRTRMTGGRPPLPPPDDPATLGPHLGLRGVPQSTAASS
Sequence of PDGFRB (P09619 whole entry): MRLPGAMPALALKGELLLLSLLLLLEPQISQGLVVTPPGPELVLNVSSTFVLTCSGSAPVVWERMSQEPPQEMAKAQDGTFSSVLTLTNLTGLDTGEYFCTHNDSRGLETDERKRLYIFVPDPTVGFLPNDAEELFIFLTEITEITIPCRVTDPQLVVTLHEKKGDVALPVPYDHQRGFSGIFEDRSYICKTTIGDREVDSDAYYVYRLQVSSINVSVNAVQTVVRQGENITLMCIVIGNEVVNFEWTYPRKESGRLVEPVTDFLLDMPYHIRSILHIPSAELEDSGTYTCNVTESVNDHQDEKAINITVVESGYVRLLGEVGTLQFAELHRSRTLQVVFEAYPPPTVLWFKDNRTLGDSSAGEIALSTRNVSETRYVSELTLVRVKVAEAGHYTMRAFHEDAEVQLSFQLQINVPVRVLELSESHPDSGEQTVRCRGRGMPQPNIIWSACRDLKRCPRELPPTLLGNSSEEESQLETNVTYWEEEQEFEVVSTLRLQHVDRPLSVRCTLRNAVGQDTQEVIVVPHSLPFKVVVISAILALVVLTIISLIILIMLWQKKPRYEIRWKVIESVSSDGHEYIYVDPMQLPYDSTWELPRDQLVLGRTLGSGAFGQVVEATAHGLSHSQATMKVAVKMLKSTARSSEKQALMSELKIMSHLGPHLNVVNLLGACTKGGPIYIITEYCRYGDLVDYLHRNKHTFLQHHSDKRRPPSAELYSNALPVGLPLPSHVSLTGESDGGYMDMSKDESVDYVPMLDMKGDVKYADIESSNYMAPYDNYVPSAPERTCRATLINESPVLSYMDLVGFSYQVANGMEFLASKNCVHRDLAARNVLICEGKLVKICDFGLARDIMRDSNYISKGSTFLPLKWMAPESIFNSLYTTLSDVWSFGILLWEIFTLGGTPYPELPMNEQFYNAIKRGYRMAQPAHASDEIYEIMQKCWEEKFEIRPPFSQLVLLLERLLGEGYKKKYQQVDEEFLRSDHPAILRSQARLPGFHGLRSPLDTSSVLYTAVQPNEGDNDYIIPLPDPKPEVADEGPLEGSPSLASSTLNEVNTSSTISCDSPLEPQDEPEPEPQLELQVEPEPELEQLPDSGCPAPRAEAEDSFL

Consider `C=CC(=O)N1CCC([C@@H]2CCNc3c(C(N)=O)c(-c4ccc(Oc5ccccc5)cc4)nn32)CC1` [Zanubrutinib], for which the remaining binding at 0.3 µM amounted to 91% at RIPK4 (setting [1]); 100% on PDGFRB (setting [1]); 81% at BRSK2 (setting [1]); 71% at DYRK1B (setting [1]); 97% at RIPK1 (setting [1]).
As to `CC#CC(=O)N1CC[C@@H](n2c(=O)n(-c3ccc(Oc4ccccc4)cc3)c3c(N)ncnc32)C1` [Tirabrutinib], the remaining binding at 0.3 µM at RIPK4 (setting [2]) turned out to be 70%; at PDGFRB (setting [2]), 79%; on DYRK1B (setting [2]), 70%.
Turning to `C=CC(=O)N1CCC[C@@H](n2nc(-c3ccc(Oc4ccccc4)cc3)c3c(N)ncnc32)C1` [Ibrutinib], the remaining binding at 0.3 µM on RIPK4 (setting [3]) worked out at 76%; on PDGFRB (setting [3]), 38%; at BRSK2 (setting [3]), 82%; on RIPK1 (setting [3]) it was 93%.
`CC#CC(=O)N1CCC[C@H]1c1nc(-c2ccc(C(=O)Nc3ccccn3)cc2)c2c(N)nccn12` [Acalabrutinib]: the remaining binding at 0.3 µM came to 85% on RIPK4 (setting [4]); 93% on PDGFRB (setting [4]); 94% on BRSK2 (setting [4]); 72% at DYRK1B (setting [4]); 93% on RIPK1 (setting [4]).
